Results: patent US8258257B2 (The Regents of the University of California, priority 2008, dated 2012)
Where no end group is shown, it is not given here.

Legend:
[1] = target: Cldn-4 deletion mutant proteins fused to GST (Mus musculus, UniProt O35054); assay type: binding
[2] = test system: Cldn-4 deletion mutant proteins fused to GST; assay type: binding, Mouse

Sequence: SLDAGQYVLVMKANSSYSGNYPYSILFQKF [Cpe30]
- binding to GST-Ecl2 without any TM domain [1]: detectable binding activity, albeit at much lower affinity
- binding to TM3.Ecl2.TM4 [1]: consistent binding
- sensorgram behaviour with full length Cldn-4 fusion [1]: slight decrease in the late stages of association
- binding to GST cldn-4 fusion proteins [2]: high affinity specific binding
